Counter-ions that a name gives are not always drawn.
system: Jurkat E6.1 cells; test: Anti-Fas induced apoptosis assay (DNA fragmentation); format: cell-based; settings: Homo sapiens, anti-Fas antibody CH-11 10 ng/ml, 16-18 hrs, DNA fragmentation OD405
Text: Cellular apoptosis may be induced by the binding of Fas ligand (FasL) to its receptor, CD95 (Fas). CD95 is one of a family of related receptors, known as death receptors, which can trigger apoptosis in cells via activation of the caspase enzyme cascade. The process is initiated by the binding of the adapter molecule FADD/MORT-1 to the cytoplasmic domain of the CD-95 receptor-ligand complex. Caspase-8 then binds FADD and becomes activated, initiating a cascade of events that involve the activation of downstream caspases and subsequent cellular apoptosis. Apoptosis can also be induced in cells expressing CD95 eg the Jurkat E6.1 T cell lymphoma cell line, using an antibody, rather than FasL, to crosslink the cell surface CD95. Anti-Fas-induced apoptosis is also triggered via the activation of caspase-8. This provides the basis of a cell-based assay to screen compounds for inhibition of the caspase-8-mediated apoptotic pathway.
Jurkat E6.1 cells are cultured in complete medium consisting of RPMI-1640 (Sigma No)+10% foetal calf serum (Gibco BRL No.10099-141)+2 mM L-glutamine (Sigma No. G-7513). The cells are harvested in log phase of growth. 100 ml Cells at 5-8×10^5 cells/ml are transferred to sterile 50 ml Falcon centrifuge tubes and centrifuged for 5 minutes at 100× g at room temperature. The supernatant is removed and the combined cell pellets resuspended in 25 ml of complete medium. The cells are counted and the density adjusted to 2×10^6 cells/ml with complete medium.
The test compound was dissolved in dimethyl sulfoxide (DMSO)(Sigma No. D-2650) to give a 100 mM stock solution. This was diluted to 400 μM in complete medium, then serially diluted in a 96-well plate prior to addition to the cell assay plate.
100-μl of the cell suspension ([…]) were added to each well of a sterile 96-well round-bottomed cluster plate (Costar No. 3790). 50 μl of compound solution at the appropriate dilution and 50 μl of anti-Fas antibody, clone CH-11 (Kamiya No.MC-060) at a final concentration of 10 ng/ml, were added to the wells. Control wells were set up minus antibody and minus compound but with a serial dilution of DMSO as vehicle control. The plates were incubated for 16-18 hrs at 37° C. in 5% CO2 and 95% humidity.
Apoptosis of the cells was measured by the quantitation of DNA fragmentation using a ‘Cell Death Detection Assay’ from Boehringer-Mannheim, No. 1544 675. After incubation for 16-18 hrs the assay plates were centrifuged at 100× g at room temperature for 5 minutes. 150 μl of the supernatant were removed and replaced by 150 μl of fresh complete medium. The cells were then harvested and 200 μl of the lysis buffer supplied in the assay kit were added to each well. The cells were triturated to ensure complete lysis and incubated for 30 minutes at 4° C. The plates were then centrifuged at 1900× g for 10 minutes and the supernatants diluted 1:20 in the incubation buffer provided. 100 μl of this solution were then assayed exactly according to the manufacturer's instructions supplied with the kit. OD405 nm were measured 20 minutes after addition of the final substrate in a SPECTRAmax Plus plate reader (molecular Devices). OD405 nm was plotted versus compound concentration and the IC50 values for the compounds were calculated using the curve-fitting program SOFTmax Pro (Molecular Devices) using the four parameter fit option.

| IC50 [nM] | Compound |
| --- | --- |
| < 200 | O=C(O)CC(NC(=O)c1ccccc1)C(=O)CF (centres unmarked) [Example 1, 3-Benzoylamino-5-fluoro-4-oxo-pentanoic Acid] |
| < 200 | O=C(O)CC(NC(=O)c1ccccc1Cl)C(=O)CF (centres unmarked) [Example 4, 3-(2-Chlorobenzoylamino)-5-fluoro-4-oxo-pentanoic Acid] |
| 200 to 1000 | O=C(O)CC(NC(=O)c1ccc(Cl)c(Cl)c1)C(=O)CF (centres unmarked) [Example 7, 3-(3,4-Dichlorobenzoylamino)-5-fluoro-4-oxo-pentanoic Acid] |
| < 200 | O=C(O)CC(NC(=O)c1cccc(F)c1)C(=O)CF (centres unmarked) [Example 10, 5-Fluoro-3-(3-fluorobenzoylamino)-4-oxo-pentanoic Acid] |
| > 1000 | O=C(O)CC(NC(=O)c1ccc(C(F)(F)F)cc1)C(=O)CF (centres unmarked) [Example 13, 5-Fluoro-3-(4-trifluoromethylbenzoylamino)-4-oxo-pent anoic Acid] |
| < 200 | COc1cccc(C(=O)NC(CC(=O)O)C(=O)CF)c1 (centres unmarked) [Example 16, 5-Fluoro-3-(3-methoxybenzoylamino)-4-oxo-pentanoic Acid] |
| 200 to 1000 | N#Cc1cccc(C(=O)NC(CC(=O)O)C(=O)CF)c1 (centres unmarked) [Example 19, 3-(3-Cyanobenzoylamino)-5-fluoro-4-oxo-pentanoic Acid] |
| < 200 | O=C(O)CC(NC(=O)c1cccc2ccccc12)C(=O)CF (centres unmarked) [Example 22, 5-Fluoro-3-(naphthyl-1-carboxamido)-4-oxo-pentanoic acid] |
| < 200 | O=C(O)CC(NC(=O)c1cccnc1)C(=O)CF (centres unmarked) [Example 25, 5-Fluoro-4-oxo-3-(pyridyl-3-carboxamido)-pentanoic Acid Trifluoroacetate Salt] |
| < 200 | O=C(O)CC(NC(=O)c1cccs1)C(=O)CF (centres unmarked) [Example 28, 5-Fluoro-4-oxo-3-(thienyl-2-carboxamido)-pentanoic Acid] |
| > 1000 | O=C(O)CC(NC(=O)c1cc2ccccc2[nH]1)C(=O)CF (centres unmarked) [Example 31, 5-Fluoro-3-(1H-indolyl-2-carboxamido)-4-oxo-pentanoi c Acid] |
| 200 to 1000 | O=C(O)CC(NC(=O)c1ccc(-c2ccccc2)o1)C(=O)CF (centres unmarked) [Example 34, 5-Fluoro-3-(5-phenyl-furyl-2-carboxamido)-4-oxo-pentanoic Acid] |
| < 200 | O=C(O)CC(NC(=O)c1cccc(Oc2ccccc2)c1)C(=O)CF (centres unmarked) [Example 37, 5-Fluoro-4-oxo-3-(3-phenoxybenzoylamino)-pentanoic Acid] |

target: recombinant, purified human caspase-8 (Homo sapiens, UniProt Q14790); test: Caspase-8 assay (fluorogenic substrate cleavage, kinact); format: biochemical; settings: second order rate constant of inactivation; 1.5 nM caspase-8, 10 μM AcDEVD-AMC, 37° C.
Sequence (Q14790 217-374 limits assumed): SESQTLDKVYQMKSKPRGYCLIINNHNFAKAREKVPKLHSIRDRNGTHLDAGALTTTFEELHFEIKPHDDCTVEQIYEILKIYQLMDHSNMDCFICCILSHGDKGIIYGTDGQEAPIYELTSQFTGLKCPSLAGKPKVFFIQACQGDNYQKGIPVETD
Sequence (Q14790 385-479 limits assumed): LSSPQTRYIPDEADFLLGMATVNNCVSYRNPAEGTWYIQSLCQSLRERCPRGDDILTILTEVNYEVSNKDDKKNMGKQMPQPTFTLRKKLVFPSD
Protocol: The assay for caspase-8 activity was based on the cleavage of a fluorogenic substrate by recombinant, purified human caspase-8 essentially according to the method described by Garcia-Calvo et al (1998) J. Biol. Chem. 273:32608-32613.
(§1) Assay Buffer: 10 mM Tris-HCI (Sigma T-3038), 1 mM dithiothreitol (DTT) (Calbiochem 233153), 0.1% CHAPS (Sigma C-3023), pH 7.5. Purified recombinant human Caspase-8. Substrate (acetyl-Asp-Glu-Val-Asp-amino-4-methyl coumarin, ACDEVD-AMC) (Bachem, I-1660). Serial dilution of test compound in DMSO (Sigma D-2650).
(§2) 70 microliters (μl) assay buffer, 20 μl of substrate and 5 μl of the inhibitor solution were added to the wells of a 96-well microtiter assay plate giving a final concentration of 1.5 nM caspase-8 and 10 μM substrate. The plate was incubated at 50° C. for 15 minutes in a thermostatically controlled plate warmer (Wesbart, UK). The reaction was then started by the addition of enzyme directly to the wells. The reaction was monitored continuously for 20 minutes in a fluorimeter (SPECTRAmax Gemini, Molecular Devices) at 37° C. by following the release of AMC fluorophor at an excitation wavelength of 390 nm and an emission wavelength of 460 nm. For each well, the observed rate of enzyme inactivation at a particular inhibitor concentration, kobs, was computed by direct fits of the data to the equation derived by Thornberry et al., (1994, Biochemistry 33, […]) using a non-linear least squares analysis computer program (PRISM 2.0, Graph Pad Software). To obtain the second order rate constant, kinact, kobs values were plotted against their respective inhibitor concentrations and kinact values were subsequently calculated by computerized linear regression.

| Kinact (1/M/s), Caspase-8 Activity | Compound |
| --- | --- |
| A (kinact (1/M/s) greater than 60,000) | O=C(O)CC(NC(=O)c1ccccc1)C(=O)CF (centres unmarked) [Example 1, 3-Benzoylamino-5-fluoro-4-oxo-pentanoic Acid] |
| C (kinact less than 40,000) | O=C(O)CC(NC(=O)c1ccccc1Cl)C(=O)CF (centres unmarked) [Example 4, 3-(2-Chlorobenzoylamino)-5-fluoro-4-oxo-pentanoic Acid] |
| B (kinact between 40,000 and 60,000) | O=C(O)CC(NC(=O)c1ccc(Cl)c(Cl)c1)C(=O)CF (centres unmarked) [Example 7, 3-(3,4-Dichlorobenzoylamino)-5-fluoro-4-oxo-pentanoic Acid] |
| B (kinact between 40,000 and 60,000) | O=C(O)CC(NC(=O)c1cccc(F)c1)C(=O)CF (centres unmarked) [Example 10, 5-Fluoro-3-(3-fluorobenzoylamino)-4-oxo-pentanoic Acid] |
| C (kinact less than 40,000) | O=C(O)CC(NC(=O)c1ccc(C(F)(F)F)cc1)C(=O)CF (centres unmarked) [Example 13, 5-Fluoro-3-(4-trifluoromethylbenzoylamino)-4-oxo-pent anoic Acid] |
| B (kinact between 40,000 and 60,000) | COc1cccc(C(=O)NC(CC(=O)O)C(=O)CF)c1 (centres unmarked) [Example 16, 5-Fluoro-3-(3-methoxybenzoylamino)-4-oxo-pentanoic Acid] |
| B (kinact between 40,000 and 60,000) | N#Cc1cccc(C(=O)NC(CC(=O)O)C(=O)CF)c1 (centres unmarked) [Example 19, 3-(3-Cyanobenzoylamino)-5-fluoro-4-oxo-pentanoic Acid] |
| B (kinact between 40,000 and 60,000) | O=C(O)CC(NC(=O)c1cccc2ccccc12)C(=O)CF (centres unmarked) [Example 22, 5-Fluoro-3-(naphthyl-1-carboxamido)-4-oxo-pentanoic acid] |
| B (kinact between 40,000 and 60,000) | O=C(O)CC(NC(=O)c1cccnc1)C(=O)CF (centres unmarked) [Example 25, 5-Fluoro-4-oxo-3-(pyridyl-3-carboxamido)-pentanoic Acid Trifluoroacetate Salt] |
| C (kinact less than 40,000) | O=C(O)CC(NC(=O)c1cccs1)C(=O)CF (centres unmarked) [Example 28, 5-Fluoro-4-oxo-3-(thienyl-2-carboxamido)-pentanoic Acid] |
| C (kinact less than 40,000) | O=C(O)CC(NC(=O)c1cc2ccccc2[nH]1)C(=O)CF (centres unmarked) [Example 31, 5-Fluoro-3-(1H-indolyl-2-carboxamido)-4-oxo-pentanoi c Acid] |
| A (kinact (1/M/s) greater than 60,000) | O=C(O)CC(NC(=O)c1ccc(-c2ccccc2)o1)C(=O)CF (centres unmarked) [Example 34, 5-Fluoro-3-(5-phenyl-furyl-2-carboxamido)-4-oxo-pentanoic Acid] |
| A (kinact (1/M/s) greater than 60,000) | O=C(O)CC(NC(=O)c1cccc(Oc2ccccc2)c1)C(=O)CF (centres unmarked) [Example 37, 5-Fluoro-4-oxo-3-(3-phenoxybenzoylamino)-pentanoic Acid] |

target: T1, Caspase-9 (Homo sapiens, UniProt P55211); test: Caspase-9 assay (fluorogenic substrate cleavage, kinact); format: biochemical; settings: second order rate constant of inactivation; 0.00125 units/ml caspase-9, 50 μM AcDEVD-AMC, buffer with 8% glycerol
T1 construct: purchased Europa Bioproducts UBC2088
T1 sequence (P55211 1-315 limits assumed): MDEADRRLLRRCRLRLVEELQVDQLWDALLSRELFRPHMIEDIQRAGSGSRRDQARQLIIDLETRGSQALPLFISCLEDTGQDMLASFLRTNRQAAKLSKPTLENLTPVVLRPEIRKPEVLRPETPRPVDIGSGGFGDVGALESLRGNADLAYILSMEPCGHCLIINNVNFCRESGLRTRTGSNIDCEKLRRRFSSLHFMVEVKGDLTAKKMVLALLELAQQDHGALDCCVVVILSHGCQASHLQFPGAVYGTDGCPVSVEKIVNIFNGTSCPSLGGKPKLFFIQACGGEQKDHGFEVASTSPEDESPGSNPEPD
T1 sequence (P55211 331-416 limits assumed): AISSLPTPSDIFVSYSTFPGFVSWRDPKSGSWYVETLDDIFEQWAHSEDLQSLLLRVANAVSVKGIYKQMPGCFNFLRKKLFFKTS
Protocol: as §1, §2
Caspase-9 was purchased from Europa Bioproducts (order No UBC2088) and used with a concentration of 0.00125 units/ml (units defined by the manufacturer as amount of enzyme that cleaves 1 nmol of LEHD-pNA in 1 h at 37° C.). The assay was run as described for the caspase-8 assay except that the caspase-9 buffer additionally contained 8% glycerol (and the substrate concentration is 50 μM AcDEVD-AMC as opposed to 10 μM for caspase-8).

| Kinact (1/M/s), Caspase-9 Activity | Compound |
| --- | --- |
| A (kinact (1/M/s) greater than 60,000) | O=C(O)CC(NC(=O)c1ccccc1)C(=O)CF (centres unmarked) [Example 1, 3-Benzoylamino-5-fluoro-4-oxo-pentanoic Acid] |
| B (kinact less than 60,000) | O=C(O)CC(NC(=O)c1cccc(-c2ccccc2)c1)C(=O)CF (centres unmarked) [Example 14, 3-(Biphenyl-3-carboxamido)-5-fluoro-4-oxo-pentanoic Acid] |
| B (kinact less than 60,000) | O=C(O)CC(NC(=O)c1ccsc1)C(=O)CF (centres unmarked) [Example 29, 5-Fluoro-4-oxo-3-(thienyl-3-carboxamido)-pentanoic Acid] |

Reference: US6632962B2, “Caspase inhibitors and uses thereof” (Vertex Pharmaceuticals Incorporated, priority 1999, dated 2003)
